{"source": "paper PMC7729733", "about": "“Biological Properties of New Chiral 2-Methyl-5,6,7,8-tetrahydroquinolin-8-amine-based Compounds” (Molecules, 2020)", "key": {"[1]": {"system": "CEM (human T-lymphocyte cells)", "settings": "read-out: IC50 CEM; reference compound; cited from earlier work"}, "[2]": {"system": "HeLa (human cervix carcinoma cells)", "settings": "read-out: IC50 HeLa; reference compound; cited from earlier work"}, "[3]": {"system": "HMEC-1 (human dermal microvascular endothelial cells)", "settings": "read-out: IC50 HMEC-1; reference compound; cited from earlier work"}, "[4]": {"system": "HT-29 (colorectal adenocarcinoma)", "settings": "reference compound; cited from earlier work"}, "[5]": {"system": "A2780 (ovarian carcinoma)", "settings": "reference compound; cited from earlier work"}, "[6]": {"system": "MSTO-211H (biphasic mesothelioma)", "settings": "reference compound; cited from earlier work"}, "HCT-116": {"system": "HCT-116", "design": "method as in PMID 30253345", "settings": "cytotoxicity; cited from earlier work"}, "[7]": {"system": "HT-29 (colorectal adenocarcinoma)", "assay": "Cell growth assay (Trypan blue), HT-29 cells", "assay_type": "cell-based, human", "settings": "Homo sapiens, HT-29, pure enantiomers, 72 h", "procedure": "(§1) A2780 (human ovarian carcinoma) and HT-29 (human colorectal adenocarcinoma) were grown in RPMI 1640 (Sigma Chemical Co., St. Louis, MO, USA), and MSTO-211H (human biphasic mesothelioma) were grown in RPMI 1640 (Sigma Chemical Co.) supplemented with 2.38 g/L Hepes, 0.11 g/L pyruvate sodium, and 2.5 g/L glucose. Then, 1.5 g/L NaHCO3, 10% heat-inactivated fetal calf serum (Biowest), 100 U/mL penicillin, 100 μg/mL streptomycin, and 0.25 μg/mL amphotericin B (Sigma Chemical Co.) were added to the media. The cells were cultured at 37 °C in a moist atmosphere of 5% carbon dioxide in air. Cells (2.5–3 × 10^4) were seeded into each well of a 24-well cell culture plate. After incubation for 24 h, various concentrations of the test agents were added to the complete medium and incubated for a further 72 h. A Trypan blue assay was performed to determine cell viability. Cytotoxicity data were expressed as IC50 values, i.e., the concentration of the test compound able to induce a 50% reduction in cell number compared with control cultures."}, "[8]": {"system": "A2780 (ovarian carcinoma)", "assay": "Cell growth assay (Trypan blue), A2780 cells", "assay_type": "cell-based, human", "procedure": "as §1"}, "[9]": {"system": "MSTO-211H (biphasic mesothelioma)", "assay": "Cell growth assay (Trypan blue), MSTO-211H cells", "assay_type": "cell-based, human", "settings": "pure enantiomers", "procedure": "as §1"}, "A2780 cells [10]": {"system": "A2780 cells", "assay": "Cell cycle analysis (propidium iodide, flow cytometry)", "assay_type": "cell-based, human", "settings": "28 h, mean ± SD of four experiments", "procedure": "A2780 cells ([…]) were seeded into a 6-well culture plate in complete medium. After incubation for 24 h, the test compound was added at the indicated concentration and cells were incubated for a further 28 h. After treatment, cells were harvested, centrifugated, and 300–500 × 10^3 cells were fixed and permeabilized with 70% ice-cold ethanol at 4 °C for 20 min. The cells were washed twice with PBS and incubated in a staining solution containing 0.1 mg/mL RNAse and 36 μg/mL propidium iodide for 20 min at room temperature. The DNA content analysis was performed using a FACSCanto II flow cytometer (Becton-Dickinson, Mountain View, CA, USA)."}, "A2780 cells [11]": {"system": "A2780 cells", "assay": "Measurement of reactive oxygen species (H2DCF-DA)", "assay_type": "cell-based, human", "settings": "50 μM, 120 min of incubation", "procedure": "The intracellular production of ROS was determined by using the cell-permeable fluorogenic probe 2′,7′-dichlorodihydrofluorescein diacetate (H2DCF-DA). A2780 cells (10^4) were seeded in 96-well plates and incubated for 24 h. The medium was then removed, and the cells washed with PBS and incubated with 10 μM H2DCF-DA in the dark for 20 min at 37 °C and 5% carbon dioxide in air. Afterwards, the medium was removed, cells washed with PBS, and PBS/10 mM glucose containing the test compound was added. ROS production was estimated by monitoring the fluorescence increase of the probe (λex = 480, λem = 530) using a PerkinElmer VICTOR X3 plate reader."}, "[12]": {"system": "supercoiled plasmid pBR322 DNA", "assay": "Unwinding assay, electrophoretic mobility of supercoiled DNA", "settings": "3 h at 37 °C", "procedure": "Figure 2SI. Effect of compound (R)-5a on the electrophoretic mobility of supercoiled DNA.\nSupercoiled plasmid pBR322 DNA was incubated in the absence or in the presence of (R)-5a at indicated concentrations. The effect of solvent alone on DNA was also assayed (solvent).\nSupercoiled pBR322 plasmid DNA (0.15 µg, Fermentas Life Sciences) was incubated in TAE buffer (0.04 M Tris, 0.02 M Acetic Acid, EDTA 1 mM, pH=8) with test compound at indicated concentrations for 3 h at 37 °C in 10 μL final volume. 3 μL of loading buffer (0.125% bromophenol blue, 0.125% xylene cyanol and 50% glycerol) was added to each sample and DNA was separated by electrophoresis on a 0.8% agarose gel at room temperature. The gels were stained with ethidium bromide (1 μg/mL) in TAE buffer, transilluminated by UV light, and the fluorescence emission was visualized by a CCD camera coupled to a Bio-Rad Gel Doc XR apparatus.\n(§2) (1 picture or pasted object on this page, not shown here)"}, "human topoisomerase I": {"biological_target": "T1, human topoisomerase I (Homo sapiens, UniProt P11387)", "T1 construct": "purchased TopoGEN", "T1 sequence (P11387 1-765)": "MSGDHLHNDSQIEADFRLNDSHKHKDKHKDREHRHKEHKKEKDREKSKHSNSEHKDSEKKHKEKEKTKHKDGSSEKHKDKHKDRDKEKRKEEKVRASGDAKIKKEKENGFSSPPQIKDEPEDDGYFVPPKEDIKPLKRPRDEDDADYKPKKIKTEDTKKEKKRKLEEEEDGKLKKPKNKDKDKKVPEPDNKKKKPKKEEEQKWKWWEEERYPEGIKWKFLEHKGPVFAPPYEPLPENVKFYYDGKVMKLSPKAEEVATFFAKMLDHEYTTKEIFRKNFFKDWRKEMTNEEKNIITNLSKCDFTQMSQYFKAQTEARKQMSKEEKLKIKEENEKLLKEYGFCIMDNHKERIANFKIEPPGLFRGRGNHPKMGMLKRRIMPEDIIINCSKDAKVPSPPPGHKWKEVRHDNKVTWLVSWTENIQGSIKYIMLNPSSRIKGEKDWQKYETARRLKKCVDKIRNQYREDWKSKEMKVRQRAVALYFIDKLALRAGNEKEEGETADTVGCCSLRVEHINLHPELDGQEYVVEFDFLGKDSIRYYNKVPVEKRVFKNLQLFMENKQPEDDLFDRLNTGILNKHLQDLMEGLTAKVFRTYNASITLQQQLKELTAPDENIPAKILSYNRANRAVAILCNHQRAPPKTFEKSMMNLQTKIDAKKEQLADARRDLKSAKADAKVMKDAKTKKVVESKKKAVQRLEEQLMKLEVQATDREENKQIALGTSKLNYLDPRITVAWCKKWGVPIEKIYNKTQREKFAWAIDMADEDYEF", "assay": "Topoisomerase I relaxation assay", "assay_type": "biochemical", "settings": "supercoiled pBR322; 60 min at 37 °C", "procedure": "(§3) Figure 3SI. Effect of compound (R)-5a on the relaxation of supercoiled pBR322 DNA by human recombinant topoisomerase I or II. Supercoiled plasmid pBR322 DNA (DNA) was incubated with topo I (topo I) or II in the absence (topo II) and in the presence of (R)-5a at indicated […]\n(§4) Topoisomerase I and II relaxation assay\n(§5) Supercoiled pBR322 plasmid DNA (20 ng, Fermentas Life Sciences) and 5U topoisomerase I (human topoisomerase I, TopoGEN) or alternatively, supercoiled pBR322 plasmid DNA (0.25 μg) and 1U topoisomerase II (human topoisomerase II alpha, Inspiralis) were incubated in the presence of test compound as indicated for 60 min at 37 °C in 20 µL reaction buffer.Reactions were stopped by adding 4 μL stop buffer (5% sodium dodecyl sulfate, 0.125% b romophenol blue, and 30% glycerol), 50 μg/mL proteinase K (Sigma) and incubating for a further 30 min at 37 °C.\n(§6) The samples were separated by electrophoresis on a 1% agarose gel at room temperature. The gels were stained with ethidium bromide 1 μg/mL in TAE buffer (0.04 M Tris-acetate and 0.001 M EDTA), transilluminated by UV light, and fluorescence emission was visualized by a CCD camera coupled to a Bio-Rad Gel Doc XR apparatus.\nas §2"}, "[13]": {"biological_target": "T2, human topoisomerase II alpha (Homo sapiens, UniProt P11388)", "T2 construct": "purchased Inspiralis", "T2 sequence (P11388 whole entry)": "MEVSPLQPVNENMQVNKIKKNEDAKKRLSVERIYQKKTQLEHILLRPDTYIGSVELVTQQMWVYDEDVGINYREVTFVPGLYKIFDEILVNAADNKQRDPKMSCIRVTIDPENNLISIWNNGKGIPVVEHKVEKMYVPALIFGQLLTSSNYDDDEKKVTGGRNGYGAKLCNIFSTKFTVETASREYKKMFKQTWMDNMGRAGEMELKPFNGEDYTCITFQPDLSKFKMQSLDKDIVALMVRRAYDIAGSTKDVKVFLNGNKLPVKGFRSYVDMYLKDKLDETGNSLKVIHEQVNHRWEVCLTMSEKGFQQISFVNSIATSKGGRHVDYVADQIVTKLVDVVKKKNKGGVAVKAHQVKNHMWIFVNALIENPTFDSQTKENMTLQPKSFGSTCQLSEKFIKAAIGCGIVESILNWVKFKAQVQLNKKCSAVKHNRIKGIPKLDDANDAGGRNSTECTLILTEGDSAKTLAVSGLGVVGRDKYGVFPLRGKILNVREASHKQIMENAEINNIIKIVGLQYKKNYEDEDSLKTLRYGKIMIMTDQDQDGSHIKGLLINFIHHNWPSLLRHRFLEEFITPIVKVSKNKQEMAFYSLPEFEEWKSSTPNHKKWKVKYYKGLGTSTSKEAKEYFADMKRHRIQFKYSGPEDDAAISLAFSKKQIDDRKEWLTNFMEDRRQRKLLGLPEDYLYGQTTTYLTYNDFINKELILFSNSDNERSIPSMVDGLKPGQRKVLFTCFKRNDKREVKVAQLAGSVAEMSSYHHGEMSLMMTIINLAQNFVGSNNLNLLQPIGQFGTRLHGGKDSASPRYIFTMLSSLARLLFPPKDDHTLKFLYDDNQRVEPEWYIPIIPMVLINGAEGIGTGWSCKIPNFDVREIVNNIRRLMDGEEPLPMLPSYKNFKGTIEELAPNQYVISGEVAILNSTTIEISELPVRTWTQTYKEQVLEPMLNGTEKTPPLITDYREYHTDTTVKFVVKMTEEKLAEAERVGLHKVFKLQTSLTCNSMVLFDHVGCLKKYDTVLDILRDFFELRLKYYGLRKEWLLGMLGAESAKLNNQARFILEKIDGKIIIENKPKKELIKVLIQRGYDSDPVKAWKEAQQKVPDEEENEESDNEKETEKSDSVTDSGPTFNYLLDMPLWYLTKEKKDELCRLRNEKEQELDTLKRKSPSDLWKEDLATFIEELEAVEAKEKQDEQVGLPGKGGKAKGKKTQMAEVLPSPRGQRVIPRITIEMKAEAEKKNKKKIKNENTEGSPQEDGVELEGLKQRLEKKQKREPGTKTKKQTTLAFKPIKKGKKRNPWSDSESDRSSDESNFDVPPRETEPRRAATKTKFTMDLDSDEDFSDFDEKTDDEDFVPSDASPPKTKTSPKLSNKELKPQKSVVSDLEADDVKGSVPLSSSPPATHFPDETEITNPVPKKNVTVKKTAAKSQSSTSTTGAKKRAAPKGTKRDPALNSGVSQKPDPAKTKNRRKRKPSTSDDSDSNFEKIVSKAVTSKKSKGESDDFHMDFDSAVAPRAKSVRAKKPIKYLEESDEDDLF", "assay": "Topoisomerase II relaxation assay", "assay_type": "biochemical", "settings": "supercoiled pBR322; 60 min at 37 °C", "procedure": "as §3, §4, §5, §6, §2"}}, "note": "Like-named read-outs stand apart in the source and are kept apart here.", "data": [{"smiles": "COc1ccc(/C=C\\c2cc(OC)c(OC)c(OC)c2)cc1OP(=O)(O)O", "note": "[CA-4P, Combretastatin A4P]", "values": [{"measurement": "IC50", "setting": "[1]", "value": "95 ± 6", "unit": "nM"}, {"measurement": "IC50", "setting": "[2]", "value": "79 ± 3", "unit": "nM"}, {"measurement": "IC50", "setting": "[3]", "value": 2.9, "unit": "nM"}]}, {"smiles": "COc1cc(NS(C)(=O)=O)ccc1Nc1c2ccccc2nc2ccccc12", "note": "[m-AMSA, Meta-amsacrine]", "values": [{"measurement": "IC50", "setting": "[4]", "value": "39 ± 4", "unit": "nM"}, {"measurement": "IC50", "setting": "[5]", "value": "27 ± 5", "unit": "nM"}, {"measurement": "IC50", "setting": "[6]", "value": "19 ± 1", "unit": "nM"}]}, {"smiles": "O=C(Sc1cccc2cccnc12)c1ccccc1Cl", "note": "[QCBT7, Quinolin-chlorobenzothiazoate]", "values": [{"measurement": "IC50", "setting": "HCT-116", "value": 600, "unit": "nM"}]}, {"smiles": "Cc1ccc2c(n1)[C@H](/N=C/c1ncc[nH]1)CCC2", "note": "[(R)-5a, (E)-1-(1H-imidazol-2-yl)-N-(2-methyl-5,6,7,8-tetrahydroquinolin-8-yl)methanimine]", "values": [{"measurement": "IC50", "setting": "[7]", "value": "> 20000", "unit": "nM"}, {"measurement": "inhibitory effect on the A2780 cell line with respect to its counterpart (S)-5a", "setting": "[8]; R enantiomer versus S enantiomer", "value": "~3", "unit": "fold"}, {"measurement": "IC50", "setting": "[8]; pure enantiomers, 72 h, Trypan blue", "value": "5400 ± 1300", "unit": "nM"}, {"measurement": "IC50", "setting": "[9]; Homo sapiens, MSTO-211H, 72 h, Trypan blue", "value": "15100 ± 1500", "unit": "nM"}, {"measurement": "cytotoxic effect on MSTO-211H (in words)", "setting": "[9]", "value": "appreciable inhibition on cell growth"}, {"measurement": "cell percentage in G0/G1", "setting": "A2780 cells [10]; 2.5 μM", "value": "61.2 ± 0.9", "unit": "%"}, {"measurement": "cell percentage in G2/M", "setting": "A2780 cells [10]; 2.5 μM", "value": "13.4 ± 0.7", "unit": "%"}, {"measurement": "cell percentage in S", "setting": "A2780 cells [10]; 2.5 μM", "value": "25.5 ± 0.6", "unit": "%"}, {"measurement": "cell percentage in G0/G1", "setting": "A2780 cells [10]; 5 μM", "value": "63.7 ± 0.6", "unit": "%"}, {"measurement": "cell percentage in G2/M", "setting": "A2780 cells [10]; 5 μM", "value": "12.1 ± 0.6", "unit": "%"}, {"measurement": "cell percentage in S", "setting": "A2780 cells [10]; 5 μM", "value": "24.1 ± 1.1", "unit": "%"}, {"measurement": "cell percentage in G0/G1", "setting": "A2780 cells [10]; 10 μM", "value": "70.3 ± 1.2", "unit": "%"}, {"measurement": "cell percentage in G2/M", "setting": "A2780 cells [10]; 10 μM", "value": "9.8 ± 0.6", "unit": "%"}, {"measurement": "cell percentage in S", "setting": "A2780 cells [10]; 10 μM", "value": "19.8 ± 0.9", "unit": "%"}, {"measurement": "cell percentage in G0/G1", "setting": "A2780 cells [10]; 20 μM", "value": "71.6 ± 0.7", "unit": "%"}, {"measurement": "cell percentage in G2/M", "setting": "A2780 cells [10]; 20 μM", "value": "9.0 ± 0.8", "unit": "%"}, {"measurement": "cell percentage in S", "setting": "A2780 cells [10]; 20 μM", "value": "19.5 ± 0.4", "unit": "%"}, {"measurement": "intracellular amount of ROS with respect to untreated cells (control)", "setting": "A2780 cells [11]", "value": "more than 4 fold"}, {"measurement": "modification in the electrophoretic migration of supercoiled plasmid DNA", "setting": "[12]", "value": "unable to induce any modification"}, {"measurement": "effect on the relaxation ability of topoisomerase I", "setting": "human topoisomerase I", "value": "unable to induce"}, {"measurement": "effect on the relaxation ability of topoisomerase II", "setting": "[13]", "value": "unable to induce"}]}]}
